Assay results reported in patent publication US20110028401A1, “CRIPTO BLOCKING MOLECULES AND THERAPEUTIC USES THEREOF” (CONSIGLIO NAZIONALE DELLE RICERCHE, priority 2009, published 2011).

Assays:
R1 ESC = test: Dopaminergic differentiation of ESCs on PA6 stromal cells; type: cell-based, mouse
Method: For more specific dopaminergic differentiation, R1 ESC were plated on a confluent monolayer of mitomycin-C treated (2 hour, 20 ug/ml, Sigma) stromal PA6 cells (Riken Cell Bank) at a density of 100 cells/cm^2 and differentiated based on the methods of Barberi et al, 2003 with the following modifications, FIG. 7(a)^27. Cells were initially cultured in serum-replacement media (Dulbecco's modified Eagle medium with 15% serum replacement, 2 mM L-glutamine and 10 uM β-mercaptoethanol, Gibco-Invitrogen) containing Noggin (300 ng/ml, R&D Systems). After 5 days the media was replenished and supplemented with Noggin plus morphogens fibroblast growth factor-8 (FGF8, 100 ng/ml) and Sonic Hedgehog (Shh, 500 ng/ml), previously shown to be important in midbrain DA neuron development. At day 8, cultures were changed into N2 media (a 1:1 mixture of F12 and MEM with 15 mM HEPES buffer, 1 mM glutamine, 6 mg/ml glucose (Sigma-Aldrich), 3 mg/ml Albumax and N2 supplement (all purchased from Invitrogen)) supplemented with FGF2 (20 ng/ml), Shh, FGF8 and Wnt5a (previously shown to be important in the differentiation of dopaminergic precursors in vitro and in vivo^25, 56. Finally at day 11, cultures were exposed to survival factors brain derived neurotrophic factor (BDNF, 30 ng/ml), glial derived neurotrophic factor (GDNF, 30 ng/ml) and ascorbic acid (AA, 100 uM). In addition, peptides (Control peptide, CP; Dimer peptide, DP or Cripto Blocking peptide, Cripto BP, 12.5 uM) were added to the cultures from day 1-11. Peptides were replenished in the media every second day.
Hoescht counterstaining was used for visualization of all cells within the cultures. The proportion of neuron containing colonies (labeled for using the immature neuronal marker βIII-tubulin (Tuj1)) and the number of dopaminergic neurons/μm^2 colony (identified using a marker for the precursor enzyme in DA synthesis, TH) were counted. Differentiation experiments were performed in triplicate.
The authors next examined whether DA differentiation could be promoted. To this end, the authors used a DA differentiation protocol involving co-culturing on stromal cells^27, to which additional modifications were incorporated (FIG. 7a). In brief, ESCs were plated at low density onto stromal cells (PA6) for a period of 5 days, to promote neural induction. From day 0-8, cultures were treated with noggin to enhance neuronal induction. From day 8-11, cultures where changed into neuronal (N2) media in the presence of Shh and FGF-8 (for ventral midbrain patterning) and basic FGF (to expand the pool of DA precursors), as well as Wnt5a (involved in DA neuron differentiation in vitro and in vivo^25, 43). Control peptide (CP) or Cripto BP (BP) were added to the differentiating ESCs from day 1 to day 11. […]

Parkinsonian rats = test: Tumor formation after ESC transplantation into striatum of 6-OHDA lesioned rats; type: in vivo, rat
Description: Thirty-seven adult male Sprague Dawley rats (250-350 g; from ARC, Australia) were housed and treated according to the guidelines of the Australian and Howard Florey Institute animal ethics committee (07-030). Animals received unilateral stereotaxic injections of 6-OHDA into the substantia nigra pars compacta (SNpc) to create a complete lesion of the midbrain DA neurons, as previously described^29. Lesioned animals were selected for transplantation based on their response to amphetamine induced rotational behaviour as previously described^29. Animals making greater than 6 rotations/min (lesion greater than 80%) were selected for grafting.
Two days prior to grafting animals began cyclosporine-A immune suppression (10 mg/kg). Fourteen days post-lesioning selected animals (determined by behavioural rotations) were again anesthetized and stereotaxically injected with 1 μl of cell suspension at each of the 4 sites as previously described^29. Stereotaxic coordinates of 1st & 2nd Injection (from bregma): anterior 0.2 mm, lateral 3.0 mm, ventral 4.5 and 5.0 mm; 3rd & 4th Injection, anterior 1.0 mm, lateral 2.5 mm, ventral 4.5 and 5.0 mm; incisor bar 0 mm^57). ESCs were differentiated as outlined in FIG. 7a. In brief, ESC colonies were dissected away from the stromal feeder layer and dissociated using collagenase/dispase with agitation (700 μg/ml, Roche, for 20 min, 80 rpm). Cells were subsequently resuspended at a density of 3,000 cells/μl ready for grafting. Five rats received Sham injections (4 μl N2 media, 1 μl/site), 16 rats received a total of 12,000 ESCs (4×1 μl grafts) pre-treated with the Control peptide (of which 9 of these animals also received infusion of the Control peptide) and a further 16 rats received grafts pretreated with the Cripto blocking peptide (9 animals receiving infusion of the Cripto BP).
The peptide infusion was performed by implantation of a cannula into the striatum (Alzet brain infusion kit) connected to a subcutaneously placed osmotic minipump (Alzet) prefilled with either CP or Cripto BP. Implantation was performed at the same time as the cell grafting. Cannula coordinates: anterior 0.5 mm, lateral 1.5 mm, ventral 5.0 mm; incisor bar 0 mm^57. The osmotic pump was capable of continuously delivering the peptide over a 3 weeks period (75 μM, 0.25 μl/hr) upon which time the animals were briefly anaesthetized with isoflurane and the pump removed through a small incision over the scapular region.
Eight weeks post grafting, rats were killed by an overdose of sodium pentobarbital (100 mg kg^−1 i.p.) and intracardially perfused as previously described^29. Brains were removed, post fixed for 1 hour, and then left overnight at 4° C. in 20% sucrose in PBS. The following day, 20 μm-thick coronal sections were cut serially through the striatum (12 series) and 50 μm through the SNpc and mounted directly onto chrome alum [K2Cr(SO4)2.12H2O] gelatinized slides.
One series of slides containing grafted striata was counterstained using 1% Neutral red to visualise the graft/tumor size and the gross morphology of the striatum.
Labeling was visualized by light or fluorescent illumination using an inverted microscope (DMIRB, Leica Microsystems, Wetzelar, Del., http://www.leica-microsystems.com) or upright microscope (Leica DMLB2). Images were acquired on a DC 350 FX camera (Leica). Area of grafts and tumors was calculated using Stereo Investigator software (MicroBrightField, Vt., USA).

[1] = peptide 12.5 uM day 1-11, 14 days on PA6

With `C[S+]([O-])CCC(N)C(=O)N[C@@H](CSCc1ccccc1)C(=O)N[C@@H](CSCc1ccccc1)C(=O)N[C@@H](CCCCNC(=O)[C@H](CSCc1ccccc1)NC(=O)[C@H](CSCc1ccccc1)NC(=O)[C@@H](N)CC[S+](C)[O-])C(=O)N[C@@H](CCCCNC(=O)[C@H](CCCCNC(=O)[C@H](CSCc1ccccc1)NC(=O)[C@H](CSCc1ccccc1)NC(=O)[C@@H](N)CC[S+](C)[O-])NC(=O)[C@H](CSCc1ccccc1)NC(=O)[C@H](CSCc1ccccc1)NC(=O)[C@@H](N)CC[S+](C)[O-])C(=O)NCC(=O)O` (stereo partly shown) [Cripto BP] the “yield of DA neurons derived from wildtype ESCs” value (R1 ESC; Noggin and Wnt5a in conjunction with Cripto BP) was “enhanced further”, the “DA neurons per TH-ir colony” value (R1 ESC; peptide 12.5 uM day 1-11) was 286 % greater than control and the “colonies immunoreactive for βIII-tubulin” value (R1 ESC; [1]) was 91%. For the same compound, the “proportion of colonies containing TH-ir DA neurons” value (R1 ESC; [1]) was 62%, the tumor volume (Parkinsonian rats; ESCs pre-treated with peptide + peptide infusion) was 0.79 um^3×10^10 and the “tumor formation (rats with tumors)” value (Parkinsonian rats; ESCs pre-treated with peptide, no infusion, 8 weeks) was 42%. The tumor volume (Parkinsonian rats; ESCs pre-treated with peptide, no infusion, Mean±SEM) was 1.09 um^3×10^10, the “further reduction of tumor incidence by continual infusion into the striatum” value (Parkinsonian rats; pre-treated ESCs + peptide infusion (75 μM, 0.25 μl/hr, 3 weeks)) was 9% and the “animals with grafts without proliferating or undifferentiated cells” value (Parkinsonian rats; range over pre-treatment without and with infusion) was 58-67%. The “reduction of tumor formation compared to control peptide” value (Parkinsonian rats; rat, in vivo) was “more than 50%”.
